US12077483B2, “Modified amine lipids” (Intellia Therapeutics, Inc., priority 2018, dated 2024)

Tests used:
[1] = pKa of amine lipid by TNS fluorescence; type: physicochemical; details: probe TNS (6-(p-toluidino)-2-naphthalenesulfonic acid sodium salt), unformulated amine lipid in ethanol, sodium phosphate buffers -9.0
How it was run: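 Unformulated amine lipid, about 100 μM final, in 0.1 M sodium phosphate buffers spanning pH 4.5–9.0 with TNS. Fluorescence read at ex 321/em 448 nm; normalized data fitted sigmoidally to give pKa.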

mouse B2M gene = experiment: In vivo editing in mouse liver, LNP with Cas9 mRNA and sgRNA G650, NGS; details: Table 3; guide G650; CD-1 female mice, 0.1 mpk i.v., liver at 6 or 7 days; Exp. 2-7
Procedure: LNPs were prepared using various amine lipids in a 4-component lipid system consisting of an ionizable lipid (e.g. an amine lipid), DSPC, cholesterol and PEG-2k-DMG. In assays for percent liver editing in mice, Cas9 mRNA and chemically modified sgRNA targeting a mouse sequence were formulated in LNPs, at either a 1:1 w/w ratio or a 1:2 w/w ratio.
The lipid components were dissolved in 100% ethanol with the lipid component molar ratios described below. The chemically modified sgRNA and Cas9 mRNA were combined and dissolved in 25 mM citrate, 100 mM NaCl, pH 5.0, resulting in a concentration of total RNA cargo of approximately 0.45 mg/mL. The LNPs were formulated with an N/P ratio of about 6, with the ratio of chemically modified sgRNA: Cas9 mRNA at either a 1:1 or 1:2 w/w ratio as described below.
CD-1 female mice, ranging from 6-10 weeks of age were used in each study. Animals were weighed and grouped according to body weight for preparing dosing solutions based on group average weight. LNPs were dosed via the lateral tail vein in a volume of 0.2 mL per animal (approximately 10 mL per kilogram body weight). The animals were periodically observed for adverse effects for at least 24 hours post dose.
For studies measuring in vivo editing in liver, CD-1 female mice were dosed at 0.1 mpk unless otherwise noted. Animals were euthanized at 6 or 7 days by exsanguinationvia cardiac puncture under isoflourane anesthesia. Liver tissue was collected from each animal for DNA extraction and analysis. Blood was collected into serum separator tubes or into tubes containing buffered sodium citrate for plasma as described herein. Cohorts of mice were measured for editing by Next-Generation Sequencing (NGS).
In brief, to quantitatively determine the efficiency of editing at the target location in the genome, genomic DNA was isolated and deep sequencing was utilized to identify the presence of insertions and deletions introduced by gene editing.
PCR primers were designed around the target site (e.g., B2M), and the genomic area of interest was amplified. Additional PCR was performed according to the manufacturer's protocols (Illumina) to add the necessary chemistry for sequencing. The amplicons were sequenced on an Illumina MiSeq instrument. The reads were aligned to the relevant reference genome (e.g., GRCm38) after eliminating those having low quality scores. The resulting files containing the reads were mapped to the reference genome (BAM files), where reads that overlapped the target region of interest were selected and the number of wild type reads versus the number of reads which contain an insertion, substitution, or deletion was calculated.
The editing percentage (e.g., the “editing efficiency” or “percent editing”) is defined as the total number of sequence reads with insertions or deletions over the total number of sequence reads, including wild type.
We assessed in vivo editing efficiency for materials delivered with formulations including various amine lipid compounds. Editing was measured using either G282 (SEQ ID No: 1) which targets the mouse TTR gene or G650 (SEQ ID No. 2) which targets the mouse B2M gene. Lipids described above were assessed for efficacy through in vivo editing experiments. LNPs were formulated at a 1:1 w/w ratio of sgRNA to Cas9 mRNA, and at an N/P ratio of about 6. Molar concentrations of lipids in the lipid component of the LNPs are expressed as mol % amine lipid/DSPC/cholesterol/PEG-2k-DMG, e.g. 50/10/38.5/1.5. The final LNPs were characterized to determine the encapsulation efficiency, polydispersity index, and average particle size according to the analytical methods provided above. Analysis of average particle size, polydispersity (PDI), total RNA content and encapsulation efficiency of RNA are shown in Table 2.

Row | SMILES | pKa [1] | Editing Mean % Indel (mouse B2M gene) [%]
1 | CCCCC/C=C\C/C=C\CCCCCCCC(=O)OCC(COC(=O)CCCCCCC/C=C\C/C=C\CCCCC)OC(=O)CCC(CCCCCCCCCCCC)OC(=O)OC1CCN(CC)CC1 (stereo not shown) [Compound 6, 2-((4-((((1-ethylpiperidin-4-yl)oxy)carbonyl)oxy)hexadecanoyl)oxy)propane-1,3-diyl (9Z,9′Z,12Z,12′Z)-bis(octadeca-9,12-dienoate)] | 5.37 | 0.4
2 | CCCCC/C=C\C/C=C\CCCCCCCC(=O)OCC(COC(=O)CCCCCCC/C=C\C/C=C\CCCCC)OC(=O)CCC(CCCCCCCCCCCC)OC(=O)C1(C)CCN(C)CC1 (stereo not shown) [Compound 10, 2-((4-((1,4-dimethylpiperidine-4-carbonyl)oxy)hexadecanoyl)oxy)propane-1,3-diyl (9Z,9′Z,12Z,12′Z)-bis(octadeca-9,12-dienoate)] | 6.05 | 5.3
3 | CCCCC/C=C\C/C=C\CCCCCCCC(=O)OCC(COC(=O)CCCCCCC/C=C\C/C=C\CCCCC)OC(=O)CCC(CCCCCCCCCCCC)OC(=O)CCCN(CC)CC (stereo not shown) [Compound 11, 2-((4-((4-(diethylamino)butanoyl)oxy)hexadecanoyl)oxy)propane-1,3-diyl (9Z,9′Z,12Z,12′Z)-bis(octadeca-9,12-dienoate)] | 5.6 | 9.2
4 | CCCCC/C=C\C/C=C\CCCCCCCC(=O)OCC(COC(=O)CCCCCCC/C=C\C/C=C\CCCCC)OC(=O)CCC(CCCCCCCCCCCC)OC(=O)NCCN(C)C (stereo not shown) [Compound 12, 2-((4-(((2-(dimethylamino)ethyl)carbamoyl)oxy)hexadecanoyl)oxy)propane-1,3-diyl (9Z,9′Z,12Z,12′Z)-bis(octadeca-9,12-dienoate)] | 6.82 | 5.5
5 | CCCCC/C=C\C/C=C\CCCCCCCC(=O)OCC(COC(=O)CCCCCCC/C=C\C/C=C\CCCCC)OC(=O)CCC(CCCCCCCCCCCC)OC(=O)OCCCCN(CC)CC (stereo not shown) [Compound 14, 2-((4-(((4-(diethylamino)butoxy)carbonyl)oxy)hexadecanoyl)oxy)propane-1,3-diyl (9Z,9′Z,12Z,12′Z)-bis(octadeca-9,12-dienoate)] | 5.91 | 20.6
6 | CCCCC/C=C\C/C=C\CCCCCCCC(=O)OCC(COC(=O)CCCCCCC/C=C\C/C=C\CCCCC)OC(=O)CCC(CCCCCCCCCCCC)OC(=O)NCCN(CC)CC (stereo not shown) [Compound 15, 2-((4-(((2-(diethylamino)ethyl)carbamoyl)oxy)hexadecanoyl)oxy)propane-1,3-diyl (9Z,9′Z,12Z,12′Z)-bis(octadeca-9,12-dienoate)] | 5.9 | 18.0
7 | CCCCC/C=C\C/C=C\CCCCCCCC(=O)OCC(COC(=O)CCCCCCC/C=C\C/C=C\CCCCC)OC(=O)CCC(CCCCCCCCCCCC)OC(=O)OCCC1CCCN1C (stereo not shown) [Compound 16, 2-((4-(((2-(1-methylpyrrolidin-2-yl)ethoxy)carbonyl)oxy)hexadecanoyl)oxy) propane-1,3-diyl (9Z,9′Z,12Z,12′Z)-bis(octadeca-9,12-dienoate)] | 5.72 | 10.1
8 | CCCCC/C=C\C/C=C\CCCCCCCC(=O)OCC(COC(=O)CCCCCCC/C=C\C/C=C\CCCCC)OC(=O)CCC(CCCCCCCCCCCCCCCC)OC(=O)OCCCN(C)C (stereo not shown) [Compound 17, 2-((4-(((3-(dimethylamino)propoxy)carbonyl)oxy)icosanoyl)oxy)propane-1,3-diyl (9Z,9′Z,12Z,12′Z)-bis(octadeca-9,12-dienoate)] | 6.18 | 12.3
9 | CCCCC/C=C\C/C=C\CCCCCCCC(=O)OCC(COC(=O)CCCCCCC/C=C\C/C=C\CCCCC)OC(=O)CCC(CCCCCCCCCCCCCCCC)OC(=O)OCCCN(C)CC (stereo not shown) [Compound 18, 2-((4-(((3-(ethyl(methyl)amino)propoxy)carbonyl)oxy)icosanoyl)oxy)propane-1,3-diyl (9Z,9′Z,12Z,12′Z)-bis(octadeca-9,12-dienoate)] | 5.83 | 4.5
10 | CCCCC/C=C\C/C=C\CCCCCCCC(=O)OCC(COC(=O)CCCCCCC/C=C\C/C=C\CCCCC)OC(=O)CCC(CCCCCCCCCCCCCCCC)OC(=O)OCCCN1CCCC1 (stereo not shown) [Compound 19, 2-((4-(((3-(pyrrolidin-1-yl)propoxy)carbonyl)oxy)icosanoyl)oxy)propane-1,3-diyl (9Z,9′Z,12Z,12′Z)-bis(octadeca-9,12-dienoate)] | 5.99 | 13.0
11 | CCCCC/C=C\C/C=C\CCCCCCCC(=O)OCC(COC(=O)CCCCCCC/C=C\C/C=C\CCCCC)OC(=O)CCC(CCCCCCCCCCCCCCCC)OC(=O)NCCN(C)CC (stereo not shown) [Compound 20, 2-((4-(((2-(ethyl(methyl)amino)ethyl)carbamoyl)oxy)icosanoyl)oxy)propane-1,3-diyl (9Z,9′Z,12Z,12′Z)-bis(octadeca-9,12-dienoate)] | 6.17 | 15.4
12 | CCCCC/C=C\C/C=C\CCCCCCCC(=O)OCC(COC(=O)CCCCCCC/C=C\C/C=C\CCCCC)OC(=O)CCC(CCCCCCCCCCCCCCCC)OC(=O)NCC1CCCN1C (stereo not shown) [Compound 21, 2-((4-((((1-methylpyrrolidin-2-yl)methyl)carbamoyl)oxy)icosanoyl)oxy)propane-1,3-diyl (9Z,9′Z,12Z,12′Z)-bis(octadeca-9,12-dienoate)] | 6.12 | 12.1
13 | CCCCCC/C=C\COC(=O)CCCCCCCC(=O)OCC(COC(=O)CCCCCCCC(=O)OC/C=C\CCCCCC)OC(=O)CCC(CCCCCCCCCCCC)OC(=O)OCCCN(C)C (stereo not shown) [Compound 22, O′1,O1-(2-((4-(((3-(dimethylamino)propoxy)carbonyl)oxy)hexadecanoyl)oxy)propane-1,3-diyl) 9,9′-di((Z)-non-2-en-1-yl) di(nonanedioate)] | 6.06 | 6.7
14 | CCCCCC/C=C\COC(=O)CCCCCCCC(=O)OCC(COC(=O)CCCCCCCC(=O)OC/C=C\CCCCCC)OC(=O)CCC(CCCCCCCCCCCC)OC(=O)NCCN(C)CC (stereo not shown) [Compound 23, O′1,O1-(2-((4-(((2-(ethyl(methyl)amino)ethyl)carbamoyl)oxy)hexadecanoyl)oxy)propane-1,3-diyl) 9,9′-di((Z)-non-2-en-1-yl) di(nonanedioate)] | 6.19 | 7.3
15 | CCCCCC/C=C\COC(=O)CCCCCCCC(=O)OCC(COC(=O)CCCCCCCC(=O)OC/C=C\CCCCCC)OC(=O)CCC(CCCCCCCCCCCC)OC(=O)NCC1CCCN1C (stereo not shown) [Compound 24, O′1,O1-(2-((4-((((1-methylpyrrolidin-2-yl)methyl)carbamoyl)oxy)hexadecanoyl)oxy)propane-1,3-diyl)9,9′-di((Z)-non-2-en-1-yl) di(nonanedioate)] | 6.1 | 6.8
16 | CCCCC/C=C\C/C=C\CCCCCCCC(=O)OCC(COC(=O)CCCCCCC/C=C\C/C=C\CCCCC)OC(=O)CCCC(CCCCCCCCCCCC)OC(=O)OCCCN(C)C (stereo not shown) [Compound 25, 2-((5-(((3-(dimethylamino)propoxy)carbonyl)oxy)heptadecanoyl)oxy)propane-1,3-diyl (9Z,9′Z,12Z,12′Z)-bis(octadeca-9,12-dienoate)] | 6.12 | 10.2
17 | CCCCC/C=C\C/C=C\CCCCCCCC(=O)OCC(COC(=O)CCCCCCC/C=C\C/C=C\CCCCC)OC(=O)CCCC(CCCCCCCCCCCC)OC(=O)OCCCN(C)CC (stereo not shown) [Compound 26, 2-((5-(((3-(ethyl(methyl)amino)propoxy)carbonyl)oxy)heptadecanoyl)oxy) propane-1,3-diyl (9Z,9′Z,12Z,12′Z)-bis(octadeca-9,12-dienoate)] | 5.82 | 5.2
